Test results taken from article PMC10382584, “Macrocyclization of linear molecules by deep learning to facilitate macrocyclic drug candidates discovery” (Nature Communications, 2023).

Legend:
Test in all cases: biochemical
Design in all cases: DiscoveRx KINOMEscan competition binding, percent of DMSO control signal at 100 nM
Settings in all cases: read-out: Fig. 4a / Percent Control / Compound 1; percent of DMSO control, competition binding
[1] = target: MAP4K3 (Homo sapiens, UniProt Q8IVH8)
[2] = target: T1, ABL1(H396P)-phosphorylated (Homo sapiens, UniProt P00519, H396P)
T1 construct: phosphorylated

[3] = target: EGFR (Homo sapiens, UniProt P00533)
[4] = target: KIT(D816V) (Homo sapiens, UniProt P10721, D816V)
[5] = target: TNNI3K (Homo sapiens, UniProt Q59H18)
[6] = target: INSR (Homo sapiens, UniProt P06213)
[7] = target: T2, CDC2L2 (Homo sapiens, UniProt Q9UQ88)
T2 construct: gene CDK11A

[8] = target: T3, CDK11 (Homo sapiens, UniProt Q9BWU1)
T3 construct: gene CDK19

[9] = target: T4, QSK (Homo sapiens, UniProt Q9Y2K2)
T4 construct: gene SIK3

[10] = target: BLK (Homo sapiens, UniProt P51451)
[11] = target: SBK1 (Homo sapiens, UniProt Q52WX2)
[12] = target: DAPK2 (Homo sapiens, UniProt Q9UIK4)
[13] = target: HIPK1 (Homo sapiens, UniProt Q86Z02)
[14] = target: T5, RPS6KA5(Kin.Dom.1-N-terminal) (Homo sapiens, UniProt O75582)
T5 construct: Kin.Dom.1-N-terminal

[15] = target: RET(V804L) (Homo sapiens, UniProt P07949, V804L)
[16] = target: MKNK1 (Homo sapiens, UniProt Q9BUB5)
[17] = target: SIK2 (Homo sapiens, UniProt Q9H0K1)
[18] = target: LIMK2 (Homo sapiens, UniProt P53671)
[19] = target: NEK9 (Homo sapiens, UniProt Q8TD19)
[20] = target: CAMKK1 (Homo sapiens, UniProt Q8N5S9)
[21] = target: T6, DLK (Homo sapiens, UniProt Q12852)
T6 construct: gene MAP3K12

[22] = target: EGFR(L858R) (Homo sapiens, UniProt P00533, L858R)
[23] = target: CLK2 (Homo sapiens, UniProt P49760)
[24] = target: ALK(L1196M) (Homo sapiens, UniProt Q9UM73, L1196M)
[25] = target: ULK3 (Homo sapiens, UniProt Q6PHR2)
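Note: KINOMEscan kinase panel binding assay, signal normalized between DMSO as 100% and a positive control compound as 0%.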

CLK2, sequence (P49760 whole entry): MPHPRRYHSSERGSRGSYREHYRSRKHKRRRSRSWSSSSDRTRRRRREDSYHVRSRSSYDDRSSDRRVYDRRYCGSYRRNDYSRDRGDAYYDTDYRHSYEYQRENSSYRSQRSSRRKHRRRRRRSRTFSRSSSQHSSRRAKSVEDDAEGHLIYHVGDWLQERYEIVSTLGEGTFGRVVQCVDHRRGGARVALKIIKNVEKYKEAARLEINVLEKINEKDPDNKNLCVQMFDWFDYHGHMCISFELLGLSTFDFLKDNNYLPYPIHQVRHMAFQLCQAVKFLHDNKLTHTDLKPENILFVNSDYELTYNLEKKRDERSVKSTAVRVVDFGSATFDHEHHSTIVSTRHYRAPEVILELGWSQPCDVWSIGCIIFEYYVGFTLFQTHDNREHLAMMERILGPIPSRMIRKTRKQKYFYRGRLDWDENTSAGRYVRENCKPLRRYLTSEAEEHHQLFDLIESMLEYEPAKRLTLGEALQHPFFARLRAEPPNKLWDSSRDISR
SBK1, sequence (Q52WX2 whole entry): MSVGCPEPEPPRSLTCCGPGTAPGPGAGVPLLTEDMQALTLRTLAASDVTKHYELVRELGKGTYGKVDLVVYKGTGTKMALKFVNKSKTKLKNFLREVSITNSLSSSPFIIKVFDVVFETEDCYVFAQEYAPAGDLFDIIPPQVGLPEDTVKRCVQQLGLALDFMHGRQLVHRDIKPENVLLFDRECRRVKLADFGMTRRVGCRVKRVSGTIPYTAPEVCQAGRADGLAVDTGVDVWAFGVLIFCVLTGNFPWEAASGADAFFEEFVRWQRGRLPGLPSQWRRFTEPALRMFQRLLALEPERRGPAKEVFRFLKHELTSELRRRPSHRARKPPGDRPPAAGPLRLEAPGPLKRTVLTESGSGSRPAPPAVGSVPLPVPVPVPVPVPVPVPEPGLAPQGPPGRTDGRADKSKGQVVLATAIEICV
NEK9, sequence (Q8TD19 whole entry): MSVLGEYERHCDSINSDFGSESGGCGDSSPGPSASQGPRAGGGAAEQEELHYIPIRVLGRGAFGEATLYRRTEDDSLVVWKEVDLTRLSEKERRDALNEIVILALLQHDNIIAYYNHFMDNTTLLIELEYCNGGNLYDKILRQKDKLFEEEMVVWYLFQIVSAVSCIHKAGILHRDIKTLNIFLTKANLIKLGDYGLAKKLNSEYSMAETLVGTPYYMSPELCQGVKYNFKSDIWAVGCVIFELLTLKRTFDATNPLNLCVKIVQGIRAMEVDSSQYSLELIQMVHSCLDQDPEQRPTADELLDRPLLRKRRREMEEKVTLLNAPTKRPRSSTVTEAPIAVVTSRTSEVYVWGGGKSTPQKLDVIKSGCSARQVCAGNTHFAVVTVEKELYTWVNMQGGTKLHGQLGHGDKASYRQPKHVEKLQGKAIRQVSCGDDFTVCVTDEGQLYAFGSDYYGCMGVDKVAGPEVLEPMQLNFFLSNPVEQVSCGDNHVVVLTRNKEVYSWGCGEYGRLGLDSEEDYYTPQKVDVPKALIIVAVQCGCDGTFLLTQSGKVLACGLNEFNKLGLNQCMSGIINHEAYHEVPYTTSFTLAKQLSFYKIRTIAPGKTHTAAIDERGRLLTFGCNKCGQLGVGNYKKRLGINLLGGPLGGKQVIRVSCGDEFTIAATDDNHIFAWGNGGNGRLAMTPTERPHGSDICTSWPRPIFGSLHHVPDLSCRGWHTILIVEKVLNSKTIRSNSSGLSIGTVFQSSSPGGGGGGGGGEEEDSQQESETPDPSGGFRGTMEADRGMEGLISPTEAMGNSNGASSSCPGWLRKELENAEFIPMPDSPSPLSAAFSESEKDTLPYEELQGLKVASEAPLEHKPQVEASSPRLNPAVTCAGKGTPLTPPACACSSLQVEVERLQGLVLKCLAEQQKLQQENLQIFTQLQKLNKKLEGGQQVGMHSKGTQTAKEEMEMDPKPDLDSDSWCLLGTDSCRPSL
INSR, sequence (P06213 whole entry): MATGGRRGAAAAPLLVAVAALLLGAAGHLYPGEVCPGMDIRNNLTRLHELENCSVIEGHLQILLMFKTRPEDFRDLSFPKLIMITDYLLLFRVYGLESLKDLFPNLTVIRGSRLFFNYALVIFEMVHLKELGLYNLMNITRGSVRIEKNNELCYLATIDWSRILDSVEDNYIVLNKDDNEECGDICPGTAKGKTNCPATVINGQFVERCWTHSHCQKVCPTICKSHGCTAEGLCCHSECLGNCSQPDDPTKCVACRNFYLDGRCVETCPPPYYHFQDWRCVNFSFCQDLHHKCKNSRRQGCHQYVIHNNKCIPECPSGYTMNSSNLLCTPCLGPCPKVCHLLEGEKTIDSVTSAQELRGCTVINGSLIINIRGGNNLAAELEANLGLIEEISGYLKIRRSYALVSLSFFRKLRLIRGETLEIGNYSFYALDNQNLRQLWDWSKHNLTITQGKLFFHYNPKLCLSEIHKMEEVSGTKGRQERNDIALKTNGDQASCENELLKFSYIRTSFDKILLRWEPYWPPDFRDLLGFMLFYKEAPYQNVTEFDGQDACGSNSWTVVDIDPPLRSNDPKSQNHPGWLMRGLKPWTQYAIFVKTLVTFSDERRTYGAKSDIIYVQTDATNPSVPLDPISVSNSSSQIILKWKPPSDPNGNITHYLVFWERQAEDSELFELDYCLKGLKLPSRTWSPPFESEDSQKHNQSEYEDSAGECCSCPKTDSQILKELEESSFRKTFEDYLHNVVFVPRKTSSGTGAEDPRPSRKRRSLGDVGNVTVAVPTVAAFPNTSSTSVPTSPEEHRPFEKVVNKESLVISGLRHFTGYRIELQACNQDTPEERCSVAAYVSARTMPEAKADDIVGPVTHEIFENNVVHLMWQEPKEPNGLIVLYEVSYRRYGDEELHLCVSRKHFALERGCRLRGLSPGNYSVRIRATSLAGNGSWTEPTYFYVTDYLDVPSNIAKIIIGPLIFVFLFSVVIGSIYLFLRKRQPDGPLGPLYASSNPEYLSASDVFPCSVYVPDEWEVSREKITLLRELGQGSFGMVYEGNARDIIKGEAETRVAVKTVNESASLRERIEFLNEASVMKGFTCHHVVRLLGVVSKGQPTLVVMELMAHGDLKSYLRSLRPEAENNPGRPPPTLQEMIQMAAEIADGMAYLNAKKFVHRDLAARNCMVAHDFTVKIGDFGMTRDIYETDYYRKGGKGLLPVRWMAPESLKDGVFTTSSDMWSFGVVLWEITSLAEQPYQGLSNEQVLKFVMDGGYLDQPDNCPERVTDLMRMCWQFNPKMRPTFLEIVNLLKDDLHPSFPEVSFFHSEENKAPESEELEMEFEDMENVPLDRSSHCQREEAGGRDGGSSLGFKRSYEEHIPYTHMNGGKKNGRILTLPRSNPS
EGFR, sequence (P00533 whole entry): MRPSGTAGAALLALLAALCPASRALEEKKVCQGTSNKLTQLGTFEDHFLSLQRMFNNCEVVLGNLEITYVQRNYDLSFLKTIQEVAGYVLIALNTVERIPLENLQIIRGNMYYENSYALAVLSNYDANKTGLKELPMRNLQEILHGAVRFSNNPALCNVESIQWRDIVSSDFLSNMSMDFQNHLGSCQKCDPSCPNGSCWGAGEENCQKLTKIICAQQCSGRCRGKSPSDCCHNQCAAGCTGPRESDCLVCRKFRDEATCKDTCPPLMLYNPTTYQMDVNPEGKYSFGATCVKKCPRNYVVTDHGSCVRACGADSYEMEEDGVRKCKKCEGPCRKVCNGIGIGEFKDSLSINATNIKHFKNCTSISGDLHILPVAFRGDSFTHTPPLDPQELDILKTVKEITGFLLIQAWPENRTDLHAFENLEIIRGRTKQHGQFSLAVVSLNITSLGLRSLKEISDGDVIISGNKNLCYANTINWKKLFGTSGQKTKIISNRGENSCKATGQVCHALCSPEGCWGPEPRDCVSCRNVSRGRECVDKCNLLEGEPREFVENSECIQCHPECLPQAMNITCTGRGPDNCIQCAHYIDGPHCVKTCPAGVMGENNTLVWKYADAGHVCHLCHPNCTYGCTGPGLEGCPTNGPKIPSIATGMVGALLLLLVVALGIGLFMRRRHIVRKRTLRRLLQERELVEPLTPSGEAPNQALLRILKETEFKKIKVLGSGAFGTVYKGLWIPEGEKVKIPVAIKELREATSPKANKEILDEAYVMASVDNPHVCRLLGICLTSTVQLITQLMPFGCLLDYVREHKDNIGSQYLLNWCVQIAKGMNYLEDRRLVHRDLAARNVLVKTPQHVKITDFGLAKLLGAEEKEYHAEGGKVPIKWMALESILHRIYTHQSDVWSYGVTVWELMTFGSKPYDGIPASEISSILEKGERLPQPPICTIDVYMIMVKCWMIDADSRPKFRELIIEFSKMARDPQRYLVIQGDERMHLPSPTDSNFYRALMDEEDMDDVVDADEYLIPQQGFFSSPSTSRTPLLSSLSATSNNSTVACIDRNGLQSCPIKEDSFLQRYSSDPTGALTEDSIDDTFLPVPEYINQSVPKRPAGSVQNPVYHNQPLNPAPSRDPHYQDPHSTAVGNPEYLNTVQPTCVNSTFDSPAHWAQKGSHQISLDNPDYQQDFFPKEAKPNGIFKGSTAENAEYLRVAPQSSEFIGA
ULK3, sequence (Q6PHR2 whole entry): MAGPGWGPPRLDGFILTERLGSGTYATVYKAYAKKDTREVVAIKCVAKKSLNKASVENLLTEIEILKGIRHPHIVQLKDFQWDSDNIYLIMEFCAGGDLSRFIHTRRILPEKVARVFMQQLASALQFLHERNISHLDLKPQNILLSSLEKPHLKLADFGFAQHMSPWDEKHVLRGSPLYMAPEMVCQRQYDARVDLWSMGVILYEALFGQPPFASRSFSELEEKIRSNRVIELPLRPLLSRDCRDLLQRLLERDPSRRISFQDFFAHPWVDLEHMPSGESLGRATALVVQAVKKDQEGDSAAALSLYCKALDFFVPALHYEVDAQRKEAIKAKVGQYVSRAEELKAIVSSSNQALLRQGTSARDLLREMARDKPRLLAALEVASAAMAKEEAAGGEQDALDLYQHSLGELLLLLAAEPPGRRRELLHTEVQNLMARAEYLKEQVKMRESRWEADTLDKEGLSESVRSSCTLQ

Cc1cnc2nc1Nc1cccc(c1)COCc1cc(ccc1OCCN1CCCC1)N2 [Compound 1]
remaining binding at 0.1 µM [1]: 83% | remaining binding at 0.1 µM [2]: 83% | remaining binding at 0.1 µM [3]: 81% | remaining binding at 0.1 µM [4]: 89% | remaining binding at 0.1 µM [5]: 100% | remaining binding at 0.1 µM [6]: 84% | remaining binding at 0.1 µM [7]: 94% | remaining binding at 0.1 µM [8]: 96% | remaining binding at 0.1 µM [9]: 63% | remaining binding at 0.1 µM [10]: 76% | remaining binding at 0.1 µM [11]: 57% | remaining binding at 0.1 µM [12]: 98% | remaining binding at 0.1 µM [13]: 66% | remaining binding at 0.1 µM [14]: 83% | remaining binding at 0.1 µM [15]: 88% | remaining binding at 0.1 µM [16]: 93% | remaining binding at 0.1 µM [17]: 94% | remaining binding at 0.1 µM [18]: 92% | remaining binding at 0.1 µM [19]: 83% | remaining binding at 0.1 µM [20]: 100% | remaining binding at 0.1 µM [21]: 43% | remaining binding at 0.1 µM [22]: 73% | remaining binding at 0.1 µM [23]: 81% | remaining binding at 0.1 µM [24]: 60% | remaining binding at 0.1 µM [25]: 85%
